{"source": "patent US20070191459A1", "about": "“Use of Benzo-Heteroaryl Sulfamide Derivatives for Lowering Lipids and Lowering Blood Glucose Levels” (priority 2006, published 2007)", "tested_on": "db/db mice", "assay": "Diabetic db/db Mouse In Vivo Assay", "conditions": "female db/db mice", "excerpt": "Db/db mice are known in the art to be susceptible to Type II diabetes (Sharma K, McCue P, Dunn S R. Am J Physiol Renal Physiol. 2003 June; 284(6):F1138-44). The Db/db mice are also known in the art to be a useful model for dylipidemia.\nFemale db/db mice (C57BL/6J-Lep^db/db, Jackson Laboratories, Bar Harbor, Me., USA) were received at 8 weeks of age and single-housed and fed with regular chow diet. Blood was collected by tail puncture and glucose was monitored with a glucometer (OneTouch Basic, Lifescan, Newtown, Pa.).\nMice at 10 weeks of age were randomized into treatment groups based on glucose values (first criterion, average of 250 mg/dl) and body weight (second criterion, average of 37 gram). The mice were orally gavaged once daily (0.2 ml at 1500-1700 hour) with vehicle control (0.5% methylcellulose, pH7.4) and vehicle containing test compound (300 mg/kg). On day 11, the mice were fasted for 4 hr during light cycle (food was removed 0600-1000 hour) and blood glucose levels were measured through tail puncture with a glucometer at 1000 hour. The mice were then anaesthetized with sodium pentobarbital (1 ml/kg, i.p, Sleepaway, Fort Dodge, Iowa) and blood was drawn via cardiac puncture and collected into heparinized tubes.\nWhite adipose tissue (WAT) (retroperitoneal fat) and skeletal muscle (gastrocnemius and soleus muscle) were dissected and weighed. Plasma samples were obtained by centrifuge at 2,000 g for 15 minutes at 4° C. and subjected to measurement of insulin, HDL cholesterol and triglyceride.\nData shown below are expressed as the mean and standard error calculated using 9-10 mice per treatment group. The 2 tailed Student's t-Tests were used for statistic analysis. All animal studies complied with the guideline of the Institutional Animal Care and Use Committee.", "key": {"[1]": {"conditions": "300 mg/kg oral gavage once daily, day 11, plasma, mean ± standard error"}, "[2]": {"conditions": "300 mg/kg oral once daily, in words"}}}
{"smiles": "NS(=O)(=O)NCc1csc2ccccc12", "note": "[Compound #1, N-(benzo[b]thien-3-ylmethyl)-sulfamide]", "values": [{"measurement": "Blood Glucose", "setting": "300 mg/kg oral gavage once daily, day 11, 4 hr fasted, mean ± standard error, 9-10 mice", "result": "350 ± 19", "unit": "mg/dL"}, {"measurement": "HDL Cholesterol", "setting": "[1]", "result": "52.6 ± 1.8", "unit": "mg/dL"}, {"measurement": "Triglycerides", "setting": "[1]", "result": "149.2 ± 15.8", "unit": "mg/dL"}, {"measurement": "Insulin levels", "setting": "300 mg/kg oral gavage once daily, day 11, plasma, vehicle 11.9±2.2", "result": "14.6±3.0"}, {"measurement": "Skeletal Muscle Weight", "setting": "300 mg/kg oral gavage once daily, day 11, gastrocnemius and soleus muscle, mean ± standard error", "result": "0.155 ± 0.004", "unit": "g"}, {"measurement": "Retroperitoneal Fat Weight", "setting": "300 mg/kg oral gavage once daily, day 11, mean ± standard error", "result": "1.29 ± 0.09", "unit": "g"}, {"measurement": "blood glucose levels as compared to vehicle treated mice", "setting": "[2]", "result": "significantly lower"}, {"measurement": "blood triglyceride levels as compared to vehicle treated mice", "setting": "[2]", "result": "decreased"}, {"measurement": "plasma HDL cholesterol levels as compared to vehicle treated mice", "setting": "[2]", "result": "significantly increased"}, {"measurement": "skeletal muscle mass versus vehicle", "setting": "[2]", "result": "increased skeletal muscle mass"}, {"measurement": "fat to lean mass ratio", "setting": "300 mg/kg oral once daily, versus vehicle, in words", "result": "significant decrease"}]}
